Source: patent US20220370317A1, “COMPOSITION FOR SKIN WHITENING, COMPRISING CARVONE OR SALT THEREOF AS ACTIVE INGREDIENT” (BOTANICSENS, priority 2019, published 2022)
Where two headings read alike, the source gives them in different places.

Columns and labels:
[1] = in water and ethanol; cited from earlier work
[2] = oral, rats; cited from earlier work
B6F10 melanocytes = assay: Measurement of melanin production in cells (α-MSH-induced melanogenesis); format: cell-based; conditions: α-MSH (100 nM) plus carvone (100 μM), 48 hours
Procedure: B16F10 melanocytes were purchased from ATCC (Manassas, Va., USA), and the purchased cells were cultured using DMEM (Dulbecco's Modified Eagle's Media) containing 10% FBS (fetal bovine serum) in an incubator at 37° C. under 5% CO2. B6F10 melanocytes were cultured in DMEM containing 10% FBS at 37° C. under 5% CO2, and then the cells were dispensed into a 6-well plate at a density of 1×10^5 cells/well and attached thereto. […] After washing twice with PBS (phosphate buffered saline), the cells were harvested. The harvested cells were centrifuged at 1,000 rpm for 5 minutes, and then the color of the pellet was visually observed. Thereafter, the cell pellet was lysed by adding 200 μL of 1N NaOH solution containing 10% DMSO, and then the absorbance at 400 nm was measured with a microplate reader.

Tyrosinase = assay: RNA extraction and quantitative PCR assay, tyrosinase expression; format: cell-based; conditions: B6F10 melanocytes, α-MSH plus carvone, vs α-MSH control cells
Procedure: (§1) B6F10 melanocytes were cultured in DMEM containing 10% FBS at 37° C. under 5% CO2, and then the cells were dispensed into a 6-well plate at a density of 1×10^5 cells/well and attached thereto. As normal cells, cells not treated with α-MSH that induces melanogenesis were used, and as control cells, cells treated with α-MSH (100 nM) were used. The cells cultured under the above conditions were treated with α-MSH (100 nM) plus carvone (100 μM) and cultured for 48 hours. […] Using the cDNA obtained through reverse transcription as a template and using the [NT] flanking sequences of the gene cDNA to be amplified as primers, quantitative PCR was performed using iQ SYBR green supermix (Bio-Rad) and CFX ConnectTM Real-Time PCR Detection System (Bio-Rad). [table]

[3] = tested on: MITF (microphthalmia transcription factor); assay: RNA extraction and quantitative PCR assay, MITF expression; format: cell-based; conditions: B6F10 melanocytes, α-MSH plus carvone, vs α-MSH control cells
Procedure: as §1

[4] = transdermal; cited from earlier work

Q: Which solubility [1] does the source give for `C=C(C)C1CC=C(C)C(=O)C1` (stereo not shown) [carvone] here?
A: well soluble

Q: And the LD50 [2]?
A: 1,640 mg/kg

Q: And the “decrease of melanin content compared to control cells” value (B6F10 melanocytes; absorbance at 400 nm, vs α-MSH control cells)?
A: 29%

Q: What about the “pellet color of cells, visually observed” value (B6F10 melanocytes; compared to control cells treated with only α-MSH) of the same molecule?
A: significantly paler

Q: What about the “decrease of tyrosinase expression compared to control cells” value (Tyrosinase) of the same molecule?
A: 31%

Q: What about the “decrease of MITF expression compared to control cells” value [3] of the same molecule?
A: 36%

Q: And the LD50 [4]?
A: ≥ 4,000 mg/kg
